# Laboratory results taken from US8299111B2, “Compounds which modulate the CB2 receptor” (Boehringer Ingelheim International GmbH, priority 2006, dated 2012).
# Target: T1, human CB2R (Homo sapiens, UniProt P34972)
# T1 construct: host or cells: CHO cells
# Experiment: CB2R mediated modulation of cAMP synthesis
# Type: cell-based
# Conditions: found through the use of the above described assays (binding and cAMP); CHO cells expressing human CB2R, forskolin-stimulated cAMP
# In short: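 CHO cells expressing human CB2R were treated for 30 min at 37 °C with compound in buffer containing 1 mM IBMX, 0.25% BSA and 10 uM forskolin. cAMP was measured after lysis. EC50 is the concentration giving 50% inhibition of forskolin-stimulated cAMP, scaled to the level set by 1 uM CP55940, fitted by four-parameter logistic.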
# T1 sequence (P34972 whole entry): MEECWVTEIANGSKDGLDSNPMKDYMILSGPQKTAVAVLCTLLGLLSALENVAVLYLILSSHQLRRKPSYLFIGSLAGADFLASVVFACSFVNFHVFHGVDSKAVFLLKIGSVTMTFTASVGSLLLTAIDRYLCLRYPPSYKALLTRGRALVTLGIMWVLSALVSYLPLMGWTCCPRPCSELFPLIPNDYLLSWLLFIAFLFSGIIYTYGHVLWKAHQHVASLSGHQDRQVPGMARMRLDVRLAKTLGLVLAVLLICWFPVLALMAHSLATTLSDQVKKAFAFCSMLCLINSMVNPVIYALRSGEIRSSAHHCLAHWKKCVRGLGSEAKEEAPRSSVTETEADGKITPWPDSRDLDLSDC
row,SMILES,agonistic activity
1,CC(C)c1cc(NC(=O)C(C)(C)S(=O)(=O)c2ccc(C(F)(F)F)nc2)n(C)n1 [N-(3-isopropyl-1-methyl-1H-pyrazol-5-yl)-2-methyl-2-{[6-(trifluoromethyl)pyridin-3-yl]sulfonyl}propanamide],agonistic activity
2,CCC(C)c1cc(NC(=O)C(C)(C)S(=O)(=O)c2ccc(Cl)cc2)on1 (centres unmarked) [N-(3-sec-Butyl-isoxazol-5-yl)-2-(4-chloro-benzenesulfonyl)-2-methyl-propionamide],agonistic activity
3,"CC(C)(C)c1cc(NC(=O)C(C)(C)S(=O)(=O)c2ccc(F)cc2F)on1 [N-(3-tert-Butyl-isoxazol-5-yl)-2-(2,4-difluoro-benzenesulfonyl)-2-methyl-propionamide]",agonistic activity
4,"CC(C)(C)c1cc(NC(=O)C(C)(C)S(=O)(=O)c2cc(F)ccc2F)on1 [N-(3-tert-Butyl-isoxazol-5-yl)-2-(2,5-difluoro-benzenesulfonyl)-2-methyl-propionamide]",agonistic activity
5,Cc1ccc(S(=O)(=O)C(C)(C)C(=O)Nc2cc(C(C)(C)C)no2)cc1F [N-(3-tert-Butyl-isoxazol-5-yl)-2-(3-fluoro-4-methyl-benzenesulfonyl)-2-methyl-propionamide],agonistic activity
6,CC(C)(C)c1cc(NC(=O)C(C)(C)S(=O)(=O)c2ccc(Cl)cc2F)on1 [N-(3-tert-Butyl-isoxazol-5-yl)-2-(4-chloro-2-fluoro-benzenesulfonyl)-2-methyl-propionamide],agonistic activity
7,CC(C)(C)c1cc(NC(=O)C(C)(C)S(=O)(=O)c2ccc(F)cc2)on1 [N-(3-tert-Butyl-isoxazol-5-yl)-2-(4-fluoro-benzenesulfonyl)-2-methyl-propionamide],agonistic activity
8,COc1ccc(S(=O)(=O)C(C)(C)C(=O)Nc2cc(C(C)(C)C)no2)cc1 [N-(3-tert-Butyl-isoxazol-5-yl)-2-(4-methoxy-benzenesulfonyl)-2-methyl-propionamide],agonistic activity
9,CC(C)(C)c1cc(NC(=O)C(C)(C)S(=O)(=O)c2ccc(C(F)(F)F)cc2)on1 [N-(3-tert-Butyl-isoxazol-5-yl)-2-methyl-2-(4-trifluoromethyl-benzenesulfonyl)-propionamide],agonistic activity
10,CC(C)(C)c1cc(NC(=O)C(C)(C)S(=O)(=O)c2ccc(C(F)(F)F)nc2)on1 [N-(3-tert-butylisoxazol-5-yl)-2-methyl-2-{[6-(trifluoromethyl)pyridin-3-yl]sulfonyl}propanamide],agonistic activity
11,"COc1ccc(S(=O)(=O)C(C)(C)C(=O)Nc2nc(C3CCCCC3)cs2)cc1 [N-(4-cyclohexyl-1,3-thiazol-2-yl)-2-[(4-methoxyphenyl)sulfonyl]-2-methylpropanamide]",agonistic activity
12,"CC(C)(C(=O)Nc1nc(C2CCCCC2)cs1)S(=O)(=O)c1ccc(S(C)(=O)=O)cc1 [N-(4-cyclohexyl-1,3-thiazol-2-yl)-2-methyl-2-{[4-(methylsulfonyl)phenyl]sulfonyl}propanamide]",agonistic activity
13,"CC(C)(C(=O)Nc1nc(C2CC2)cs1)S(=O)(=O)c1ccc(S(C)(=O)=O)cc1 [N-(4-cyclopropyl-1,3-thiazol-2-yl)-2-methyl-2-{[4-(methylsulfonyl)phenyl]sulfonyl}propanamide]",agonistic activity
14,CCc1ccnc(NC(=O)C(C)(C)S(=O)(=O)c2ccc(C(F)(F)F)nc2)c1 [N-(4-ethylpyridin-2-yl)-2-methyl-2-{[6-(trifluoromethyl)pyridin-3-yl]sulfonyl}propanamide],agonistic activity
15,"CC(C)(C)c1csc(NC(=O)C(C)(C)S(=O)(=O)c2ccc(Cl)cc2Cl)n1 [N-(4-tert-Butyl-thiazol-2-yl)-2-(2,4-dichloro-benzenesulfonyl)-2-methyl-propionamide]",agonistic activity
16,"CC(C)(C)c1csc(NC(=O)C(C)(C)S(=O)(=O)c2cc(F)ccc2F)n1 [N-(4-tert-Butyl-thiazol-2-yl)-2-(2,5-difluoro-benzenesulfonyl)-2-methyl-propionamide]",agonistic activity
17,CC(C)(C)c1csc(NC(=O)C(C)(C)S(=O)(=O)c2ccc(Cl)cc2F)n1 [N-(4-tert-Butyl-thiazol-2-yl)-2-(4-chloro-2-fluoro-benzenesulfonyl)-2-methyl-propionamide],agonistic activity
18,CC(C)(C)c1csc(NC(=O)C(C)(C)S(=O)(=O)c2ccc(C#N)cc2F)n1 [N-(4-tert-Butyl-thiazol-2-yl)-2-(4-cyano-2-fluoro-benzenesulfonyl)-2-methyl-propionamide],agonistic activity
19,CC(C)(C)c1csc(NC(=O)C(C)(C)S(=O)(=O)c2ccc(F)cc2)n1 [N-(4-tert-Butyl-thiazol-2-yl)-2-(4-fluoro-benzenesulfonyl)-2-methyl-propionamide],agonistic activity
20,CC(C)(C)c1csc(NC(=O)C(C)(C)S(=O)(=O)c2ccc(Cl)nc2)n1 [N-(4-tert-Butyl-thiazol-2-yl)-2-(6-chloro-pyridine-3-sulfonyl)-2-methyl-propionamide],agonistic activity
21,CC(C)(C)c1csc(NC(=O)C(C)(C)S(=O)(=O)c2cccc(C(F)(F)F)c2)n1 [N-(4-tert-Butyl-thiazol-2-yl)-2-methyl-2-(3-trifluoromethyl-benzenesulfonyl)-propionamide],agonistic activity
22,CC(C)(C)c1csc(NC(=O)C(C)(C)S(=O)(=O)c2ccc(C(F)(F)F)cc2)n1 [N-(4-tert-Butyl-thiazol-2-yl)-2-methyl-2-(4-trifluoromethyl-benzenesulfonyl)-propionamide],agonistic activity
23,CC(C)(C)c1csc(NC(=O)C(C)(C)S(=O)(=O)c2ccc(C(F)(F)F)nc2)n1 [N-(4-tert-Butyl-thiazol-2-yl)-2-methyl-2-(6-trifluoromethyl-pyridine-3-sulfonyl)-propionamide],agonistic activity

# Further lines, results first:
row,agonistic activity,SMILES
1,agonistic activity,CC(C)(C)c1cc(NC(=O)C(C)(C)S(=O)(=O)c2ccc(Cl)cc2)ccn1 [N-(2-tert-butylpyridin-4-yl)-2-[(4-chlorophenyl)sulfonyl]-2-methylpropanamide]
2,agonistic activity,CC(C)(C)c1cc(NC(=O)C(C)(C)S(=O)(=O)c2ccc(Cl)cc2)on1 [N-(3-tert-Butyl-isoxazol-5-yl)-2-(4-chloro-benzenesulfonyl)-2-methyl-propionamide]
3,agonistic activity,Cc1ccc(S(=O)(=O)C(C)(C)C(=O)Nc2cc(C(C)(C)C)no2)cc1 [N-(3-tert-Butyl-isoxazol-5-yl)-2-methyl-2-(toluene-4-sulfonyl)-propionamide]
4,agonistic activity,CC(C)(C)c1cccc(NC(=O)C(C)(C)S(=O)(=O)c2ccc(Cl)cc2)c1 [N-(3-tert-Butyl-phenyl)-2-(4-chloro-benzenesulfonyl)-2-methyl-propionamide]
5,agonistic activity,Cn1nc(C(C)(C)C)cc1NC(=O)C(C)(C)S(=O)(=O)c1ccc(S(C)(=O)=O)cc1 [N-(3-tert-butyl-1-methyl-1H-pyrazol-5-yl)-2-methyl-2-{[4-(methylsulfonyl)phenyl]sulfonyl}propanamide]
6,agonistic activity,CC(C)(C)c1cccc(NC(=O)C(C)(C)S(=O)(=O)c2ccc(Cl)cc2F)c1 [N-(3-tert-butylphenyl)-2-[(4-chloro-2-fluorophenyl)sulfonyl]-2-methylpropanamide]
7,agonistic activity,CC(C)(C)c1cccc(NC(=O)C(C)(C)S(=O)(=O)c2ccc(C(F)(F)F)nc2)c1 [N-(3-tert-butylphenyl)-2-methyl-2-{[6-(trifluoromethyl)pyridin-3-yl]sulfonyl}propanamide]
8,agonistic activity,CCc1ccnc(NC(=O)C(C)(C)S(=O)(=O)c2ccc(S(C)(=O)=O)cc2)c1 [N-(4-ethylpyridin-2-yl)-2-methyl-2-{[4-(methylsulfonyl)phenyl]sulfonyl}propanamide]
9,agonistic activity,Cc1sc(NC(=O)C(C)(C)S(=O)(=O)c2ccc(Cl)cc2)nc1C(C)(C)C [N-(4-tert-Butyl-5-methyl-thiazol-2-yl)-2-(4-chloro-benzenesulfonyl)-2-methyl-propionamide]
10,agonistic activity,CC(C)(C)c1coc(NC(=O)C(C)(C)S(=O)(=O)c2ccc(Cl)cc2)n1 [N-(4-tert-Butyl-oxazol-2-yl)-2-(4-chloro-benzenesulfonyl)-2-methyl-propionamide]
11,agonistic activity,CC(C)(C)c1ccc(NC(=O)C(C)(C)S(=O)(=O)c2ccc(Cl)cc2)cc1 [N-(4-tert-Butyl-phenyl)-2-(4-chloro-benzenesulfonyl)-2-methyl-propionamide]
12,agonistic activity,"CC(C)(C)c1csc(NC(=O)C(C)(C)S(=O)(=O)c2ccc(Cl)c(Cl)c2)n1 [N-(4-tert-Butyl-thiazol-2-yl)-2-(3,4-dichloro-benzenesulfonyl)-2-methyl-propionamide]"
13,agonistic activity,CC(C)(C)c1csc(NC(=O)C(C)(C)S(=O)(=O)c2ccc(Cl)cc2)n1 [N-(4-tert-Butyl-thiazol-2-yl)-2-(4-chloro-benzenesulfonyl)-2-methyl-propionamide]
14,agonistic activity,COc1ccc(S(=O)(=O)C(C)(C)C(=O)Nc2nc(C(C)(C)C)cs2)cn1 [N-(4-tert-Butyl-thiazol-2-yl)-2-(6-methoxy-pyridine-3-sulfonyl)-2-methyl-propionamide]
15,agonistic activity,CC(C)(C)c1csc(NC(=O)C(C)(C)S(=O)(=O)c2ccc3ccccc3c2)n1 [N-(4-tert-Butyl-thiazol-2-yl)-2-methyl-2-(naphthalene-2-sulfonyl)-propionamide]
